# Test results published in ChEMBL document CHEMBL1201861, “Genomics of Drug Sensitity in Cancer screening data, Wellcome Trust Sanger Institute”.
# pIC50: −log10 of the molar value.
# Key:
# Assay in all cases: cells
# Conditions in all cases: Homo sapiens
# [1] = system: A704; assay type: functional, cell-based;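 further: growth inhibition of human A704 cells, read out with a cell viability assay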
# Description: SANGER: Inhibition of human A704 cell growth in a cell viability assay.
# [2] = system: C8166; assay type: functional, cell-based;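 further: growth inhibition of human C8166 cells measured by a cell viability assay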
# Description: SANGER: Inhibition of human C8166 cell growth in a cell viability assay.
# [3] = system: RPMI-8226; assay type: functional, cell-based
# Description: SANGER: Inhibition of human RPMI-8226 cell growth in a cell viability assay.
# [4] = system: SBC-1; assay type: functional, cell-based;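 further: cell viability assay measuring growth inhibition of the SBC-1 cell line, IC50 being the concentration that halves growth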
# Description: SANGER: Inhibition of human SBC-1 cell growth in a cell viability assay.
# [5] = system: HCC2218; assay type: functional, cell-based;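 further: cell viability assay read-out, with IC50 given as the concentration that inhibits growth of the cell line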
# Description: SANGER: Inhibition of human HCC2218 cell growth in a cell viability assay.
# [6] = system: Calu-6; assay type: functional, cell-based;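 further: growth of human Calu-6 cells, read out by a cell viability assay, IC50 marking inhibition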
# Description: SANGER: Inhibition of human Calu-6 cell growth in a cell viability assay.
# [7] = system: KMOE-2; assay type: functional, cell-based;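 further: growth inhibition of human KMOE-2 cells, read out with a cell viability assay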
# Description: SANGER: Inhibition of human KMOE-2 cell growth in a cell viability assay.
# [8] = system: LOX IMVI; assay type: functional, cell-based
# Description: SANGER: Inhibition of human LOXIMVI cell growth in a cell viability assay.
# [9] = system: NCI-H1770; assay type: functional, cell-based;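 further: growth inhibition of NCI-H1770 cells determined with a viability readout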
# Description: SANGER: Inhibition of human NCI-H1770 cell growth in a cell viability assay.
# [10] = system: GI-1; assay type: functional, cell-based;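 further: growth inhibition of human GI-1 cells, measured with a cell viability readout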
# Description: SANGER: Inhibition of human GI-1 cell growth in a cell viability assay.
# [11] = system: NCI-H1648; assay type: functional, cell-based;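 further: cell viability assay measuring inhibition of NCI-H1648 cell growth, from the Sanger screening data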
# Description: SANGER: Inhibition of human NCI-H1648 cell growth in a cell viability assay.
# [12] = system: KU812 cell line; assay type: functional, cell-based;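 further: growth inhibition of KU812 cells, read out with a cell viability assay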
# Description: SANGER: Inhibition of human KU812 cell growth in a cell viability assay.
# [13] = system: NCI-H1355; assay type: functional, cell-based;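 further: growth inhibition of human NCI-H1355 cells, read out by a cell viability assay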
# Description: SANGER: Inhibition of human NCI-H1355 cell growth in a cell viability assay.
# [14] = system: ES8; assay type: functional, cell-based;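 further: growth inhibition of human ES8 cells, read out with a cell viability assay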
# Description: SANGER: Inhibition of human ES8 cell growth in a cell viability assay.
# [15] = system: ETK-1; assay type: functional, cell-based;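 further: growth inhibition of human ETK-1 cells, read out with a cell viability assay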
# Description: SANGER: Inhibition of human ETK-1 cell growth in a cell viability assay.
# [16] = system: LB1047-RCC; assay type: functional, cell-based;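 further: inhibition of cell growth, determined with a cell viability assay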
# Description: SANGER: Inhibition of human LB1047-RCC cell growth in a cell viability assay.
# [17] = system: HL-60; assay type: functional, cell-based;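 further: growth inhibition of human HL-60 cells, read out with a cell viability assay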
# Description: SANGER: Inhibition of human HL-60 cell growth in a cell viability assay.
# [18] = system: MHH-PREB-1; assay type: functional, cell-based;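 further: cell viability assay measuring inhibition of proliferation of human MHH-PREB-1 cells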
# Description: SANGER: Inhibition of human MHH-PREB-1 cell growth in a cell viability assay.
# [19] = system: KG-1; assay type: functional, cell-based;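 further: growth inhibition of KG-1 cells, read out by a cell viability assay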
# Description: SANGER: Inhibition of human KG-1 cell growth in a cell viability assay.
# [20] = system: GOTO; assay type: functional, cell-based;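 further: growth inhibition of GOTO cells, read out by a cell viability assay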
# Description: SANGER: Inhibition of human GOTO cell growth in a cell viability assay.
# [21] = system: KS-1; assay type: functional, cell-based;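 further: growth inhibition of KS-1 cells, read out with a cell viability assay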
# Description: SANGER: Inhibition of human KS-1 cell growth in a cell viability assay.
# [22] = system: SNU-C2B; assay type: functional, cell-based;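 further: cell viability readout used to measure compound-driven suppression of SNU-C2B cell proliferation, IC50 marking half-maximal growth inhibition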
# Description: SANGER: Inhibition of human SNU-C2B cell growth in a cell viability assay.
# [23] = system: RXF 393; assay type: functional, cell-based;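 further: growth inhibition of human RXF 393 cells, read out with a cell viability assay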
# Description: SANGER: Inhibition of human RXF393 cell growth in a cell viability assay.
# [24] = system: OCUB-M; assay type: functional, cell-based;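 further: growth inhibition of the cancer cell line, read out through a cell viability assay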
# Description: SANGER: Inhibition of human OCUB-M cell growth in a cell viability assay.
# [25] = system: NOMO-1; assay type: functional, cell-based;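 further: growth inhibition of human NOMO-1 cells measured by a cell viability assay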
# Description: SANGER: Inhibition of human NOMO-1 cell growth in a cell viability assay.
# [26] = system: 697; assay type: functional, cell-based
# Description: SANGER: Inhibition of human 697 cell growth in a cell viability assay.
# [27] = system: J-RT3-T3-5; assay type: functional, cell-based;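 further: cell viability assay measuring growth inhibition of human J-RT3-T3-5 cells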
# Description: SANGER: Inhibition of human J-RT3-T3-5 cell growth in a cell viability assay.
# [28] = system: SCH; assay type: functional, cell-based;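 further: growth inhibition of human SCH cells, read out in a cell viability assay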
# Description: SANGER: Inhibition of human SCH cell growth in a cell viability assay.
# [29] = system: NCI-H69; assay type: functional, cell-based;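 further: growth inhibition of the cell line, read out with a cell viability assay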
# Description: SANGER: Inhibition of human NCI-H69 cell growth in a cell viability assay.
# [30] = system: MN-60; assay type: functional, cell-based;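 further: growth inhibition of the MN-60 cell line, determined with a cell viability assay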
# Description: SANGER: Inhibition of human MN-60 cell growth in a cell viability assay.
# [31] = system: no-11; assay type: functional, cell-based;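 further: growth inhibition of human NO-11 cells, read out with a cell viability assay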
# Description: SANGER: Inhibition of human no-11 cell growth in a cell viability assay.
# [32] = system: GR-ST; assay type: functional, cell-based
# Description: SANGER: Inhibition of human GR-ST cell growth in a cell viability assay.
# [33] = system: KNS-42; assay type: functional, cell-based;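 further: growth inhibition of KNS-42 cells, read out with a cell viability assay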
# Description: SANGER: Inhibition of human KNS-42 cell growth in a cell viability assay.
# [34] = system: OMC-1; assay type: functional, cell-based;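 further: growth inhibition of the OMC-1 cell line, measured by a cell viability assay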
# Description: SANGER: Inhibition of human OMC-1 cell growth in a cell viability assay.
# [35] = system: KLE; assay type: functional, cell-based;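 further: growth inhibition of human KLE cells, read out with a cell viability assay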
# Description: SANGER: Inhibition of human KLE cell growth in a cell viability assay.
# [36] = system: NCI-H1838; assay type: functional, cell-based;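 further: growth inhibition of NCI-H1838 cells, determined with a cell viability readout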
# Description: SANGER: Inhibition of human NCI-H1838 cell growth in a cell viability assay.
# [37] = system: SK-PN-DW; assay type: functional, cell-based;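 further: growth inhibition measured with a viability assay on these cells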
# Description: SANGER: Inhibition of human SK-PN-DW cell growth in a cell viability assay.
# [38] = system: LB831-BLC; assay type: functional, cell-based;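 further: growth inhibition of LB831-BLC cells, read out with a cell viability assay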
# Description: SANGER: Inhibition of human LB831-BLC cell growth in a cell viability assay.
# [39] = system: DMS-79; assay type: functional, cell-based;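 further: growth inhibition measured with a cell viability assay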
# Description: SANGER: Inhibition of human DMS-79 cell growth in a cell viability assay.
# [40] = system: MC116; assay type: functional, cell-based;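 further: growth inhibition of MC116 cells, read out with a cell viability assay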
# Description: SANGER: Inhibition of human MC116 cell growth in a cell viability assay.
# [41] = system: Ramos-2G6-4C10; assay type: functional, cell-based;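 further: growth inhibition of the cell line, measured by a cell viability read-out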
# Description: SANGER: Inhibition of human Ramos-2G6-4C10 cell growth in a cell viability assay.
# [42] = system: LS-513; assay type: functional, cell-based
# Description: SANGER: Inhibition of human LS-513 cell growth in a cell viability assay.
# [43] = system: SH-4; assay type: functional, cell-based;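 further: growth inhibition of SH-4 cells, read out with a cell viability assay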
# Description: SANGER: Inhibition of human SH-4 cell growth in a cell viability assay.
# [44] = system: MOLT-16; assay type: functional, cell-based;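 further: growth inhibition of human MOLT-16 cells, read out with a cell viability assay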
# Description: SANGER: Inhibition of human MOLT-16 cell growth in a cell viability assay.
# [45] = system: ES5; assay type: functional, cell-based;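 further: growth inhibition of human ES5 cells, read out by a cell viability assay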
# Description: SANGER: Inhibition of human ES5 cell growth in a cell viability assay.
# [46] = system: NTERA-2-cl-D1; assay type: functional, cell-based;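 further: inhibition of cell growth, measured with a cell viability assay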
# Description: SANGER: Inhibition of human NTERA-S-cl-D1 cell growth in a cell viability assay.
# [47] = system: ES1; assay type: functional, cell-based;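 further: growth inhibition of ES1 cells, read out with a cell viability assay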
# Description: SANGER: Inhibition of human ES1 cell growth in a cell viability assay.
# [48] = system: JVM-2; assay type: functional, cell-based;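 further: growth inhibition of JVM-2 cells determined by a cell viability assay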
# Description: SANGER: Inhibition of human JVM-2 cell growth in a cell viability assay.
# [49] = system: SNU1; assay type: functional, cell-based;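 further: growth inhibition of human NCI-SNU-1 cells, measured with a cell viability assay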
# Description: SANGER: Inhibition of human NCI-SNU-1 cell growth in a cell viability assay.
# [50] = system: GB-1; assay type: functional, cell-based;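 further: growth of GB-1 cells judged by a viability assay, IC50 marks the concentration inhibiting growth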
# Description: SANGER: Inhibition of human GB-1 cell growth in a cell viability assay.
# [51] = system: TK-10; assay type: functional, cell-based;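 further: growth inhibition of TK-10 cells, read out in a cell viability assay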
# Description: SANGER: Inhibition of human TK10 cell growth in a cell viability assay.
# [52] = system: LU-134-A; assay type: functional, cell-based
# Description: SANGER: Inhibition of human LU-134-A cell growth in a cell viability assay.
# [53] = system: HDLM-2; assay type: functional, cell-based
# Description: SANGER: Inhibition of human HDLM-2 cell growth in a cell viability assay.
# [54] = system: KY821; assay type: functional, cell-based
# Description: SANGER: Inhibition of human KY821 cell growth in a cell viability assay.
# [55] = system: MZ1-PC; assay type: functional, cell-based
# Description: SANGER: Inhibition of human MZ1-PC cell growth in a cell viability assay.
# [56] = system: NCI-H1155; assay type: functional, cell-based
# Description: SANGER: Inhibition of human NCI-H1155 cell growth in a cell viability assay.
# [57] = system: SHP77; assay type: functional, cell-based, SHP-77
# Description: SANGER: Inhibition of human SHP-77 cell growth in a cell viability assay.
# [58] = system: SW 954; assay type: functional, cell-based
# Description: SANGER: Inhibition of human SW954 cell growth in a cell viability assay.
# [59] = system: LAN-6; assay type: functional, cell-based
# Description: SANGER: Inhibition of human LAN-6 cell growth in a cell viability assay.
# [60] = system: SK-MEL-2; assay type: functional, cell-based
# Description: SANGER: Inhibition of human SK-MEL-2 cell growth in a cell viability assay.
# [61] = system: IST-SL1; assay type: functional, cell-based
# Description: SANGER: Inhibition of human IST-SL1 cell growth in a cell viability assay.
# [62] = system: EOL1; assay type: functional, cell-based
# Description: SANGER: Inhibition of human EoL-1-cell cell growth in a cell viability assay.
# [63] = system: KARPAS-299; assay type: functional, cell-based
# Description: SANGER: Inhibition of human KARPAS-299 cell growth in a cell viability assay.
# [64] = system: EC-GI-10; assay type: functional, cell-based
# Description: SANGER: Inhibition of human EC-GI-10 cell growth in a cell viability assay.
# [65] = system: JAR; assay type: functional, cell-based
# Description: SANGER: Inhibition of human JAR cell growth in a cell viability assay.
# [66] = system: GAK; assay type: functional, cell-based
# Description: SANGER: Inhibition of human GAK cell growth in a cell viability assay.
smiles,measurement,setting,value
CO[C@@]12[C@H](COC(N)=O)C3=C(C(=O)C(C)=C(N)C3=O)N1C[C@@H]1N[C@@H]12 [MITOMYCIN],pIC50,[1],5.62
same,pIC50,[2],6.03
same,pIC50,[3],5.91
same,pIC50,[4],6.35
same,pIC50,[5],6.23
same,pIC50,[6],6.50
same,pIC50,[7],5.79
same,pIC50,[8],6.45
same,pIC50,[9],6.47
same,pIC50,[10],7.45
same,pIC50,[11],6.28
same,pIC50,[12],6.82
same,pIC50,[13],6.93
same,pIC50,[14],> 7.20
same,pIC50,[15],6.97
same,pIC50,[16],> 7.20
same,pIC50,[17],6.97
same,pIC50,[18],5.50
same,pIC50,[19],6.22
same,pIC50,[20],6.26
same,pIC50,[21],6.44
same,pIC50,[22],6.53
same,pIC50,[23],5.36
same,pIC50,[24],6.99
same,pIC50,[25],6.82
same,pIC50,[26],> 7.20
same,pIC50,[27],6.73
same,pIC50,[28],< 4.80
same,pIC50,[29],5.77
same,pIC50,[30],5.90
same,pIC50,[31],5.11
same,pIC50,[32],6.92
same,pIC50,[33],5.96
same,pIC50,[34],6.41
same,pIC50,[35],5.53
same,pIC50,[36],6.39
same,pIC50,[37],7.20
same,pIC50,[38],6.09
same,pIC50,[39],5.61
same,pIC50,[40],5.85
same,pIC50,[41],5.59
same,pIC50,[42],5.93
same,pIC50,[43],6.41
same,pIC50,[44],6.23
same,pIC50,[45],6.99
same,pIC50,[46],> 7.20
same,pIC50,[47],> 7.20
same,pIC50,[48],6.40
same,pIC50,[49],6.81
same,pIC50,[50],6.34
same,pIC50,[51],6.28
same,pIC50,[52],7.33
same,pIC50,[53],5.84
same,pIC50,[54],5.78
same,pIC50,[55],6.35
same,pIC50,[56],6.06
same,pIC50,[57],5.86
same,pIC50,[58],7.35
same,pIC50,[59],6.48
same,pIC50,[60],5.40
same,pIC50,[61],5.84
same,pIC50,[62],6.79
same,pIC50,[63],5.85
same,pIC50,[64],4.83
same,pIC50,[65],5.34
same,pIC50,[66],6.22
CC(C)=CC[C@@H](O)C1=CC(=O)c2c(O)ccc(O)c2C1=O [SHIKONIN],pIC50,[1],5.57
same,pIC50,[2],6.39
same,pIC50,[3],6.33
same,pIC50,[4],4.92
same,pIC50,[5],6.30
same,pIC50,[6],4.80
same,pIC50,[7],5.91
same,pIC50,[8],6.39
same,pIC50,[9],6.61
same,pIC50,[10],6.25
same,pIC50,[11],4.95
same,pIC50,[12],> 7.20
same,pIC50,[13],5.55
same,pIC50,[14],6.11
same,pIC50,[15],5.61
same,pIC50,[16],6.52
same,pIC50,[17],5.72
same,pIC50,[18],6.60
same,pIC50,[19],5.80
same,pIC50,[20],5.34
same,pIC50,[21],7.38
same,pIC50,[22],< 4.80
same,pIC50,[23],6.13
same,pIC50,[24],6.06
same,pIC50,[25],5.94
same,pIC50,[26],6.06
same,pIC50,[27],5.68
same,pIC50,[28],< 4.80
same,pIC50,[29],5.17
same,pIC50,[30],6.46
same,pIC50,[31],6.09
same,pIC50,[32],6.99
same,pIC50,[33],< 4.80
same,pIC50,[34],5.76
same,pIC50,[35],6.16
same,pIC50,[36],< 4.80
same,pIC50,[37],7.44
same,pIC50,[38],5.72
same,pIC50,[39],< 4.80
same,pIC50,[40],5.75
same,pIC50,[41],6.50
same,pIC50,[42],5.83
same,pIC50,[43],6.43
same,pIC50,[44],5.56
same,pIC50,[45],5.58
same,pIC50,[46],6.84
same,pIC50,[47],6.30
same,pIC50,[48],5.41
same,pIC50,[49],5.80
same,pIC50,[50],5.88
same,pIC50,[51],5.91
same,pIC50,[52],6.09
same,pIC50,[53],< 4.80
same,pIC50,[54],6.13
same,pIC50,[55],7.71
same,pIC50,[56],< 4.80
same,pIC50,[57],6.35
same,pIC50,[58],6.33
same,pIC50,[59],5.49
same,pIC50,[60],5.20
same,pIC50,[61],< 4.80
same,pIC50,[62],6.29
same,pIC50,[63],6.10
same,pIC50,[64],< 4.80
same,pIC50,[65],5.49
same,pIC50,[66],5.98
